Assay [1] has as its target FhCB1 (Fasciola hepatica, UniProt Q8I7B2). As to the kind of experiment: Inhibition of recombinant FhCB1, fluorogenic substrate assay (Z-Phe-Arg-AMC). The format is biochemical. To be noted: for Ki: read-out: inhibition constant Ki. The protocol:
(§1) Recombinant peptidases were assayed for enzymatic activity using a fluorogenic substrate assay. The reactions were carried out in 0.1 M C-P buffer (pH 7.0) with 1 mM DTT in a final volume of 200 μL, in a black 96-well plate. Each well contained activated enzyme (140 nM) and 20 μM fluorogenic substrate, which was added to start the reaction. All assays were run in triplicate at 37 °C for 1 h. Enzyme activity was monitored by rate of hydrolysis and subsequent release of the AMC group on the synthetic peptide substrates at an excitation wavelength of 370 nm and an emission wavelength of 460 nm, as relative fluorescence units (RFU), in a PolarStar Omega Spectrophotometer (BMG Labtech, Aylesbury, UK). All data were plotted and analysed using MARS Data Analysis Software (BMG Labtech, UK) and GraphPad Prism version 5.
(§2) Commercially available inhibitors of cathepsin B (Ca074 and Ca074-OMe), cathepsin L (L, L1, LII, LIII and LIV), cathepsin K (KI, KII and KIII) and cathepsin S were purchased from Merck Millipore (Cork, Ireland; Supplementary Figure S2). The broad-spectrum papain peptidase inhibitor Z-Phe-Ala-FMK was purchased from Enzo Life Sciences (Exeter, UK). These were used to determine and compare the inhibition constant (Ki) against the recombinant FhCBs and FhCL3. All the assays were carried out in 0.1 M C-P buffer with 1 mM DTT and 0.01% Brij® L23, at the pH corresponding to the optimum for each enzyme in a total 200 µL reaction volume. The peptidases (140 nM) were pre-incubated with the inhibitor (1000-15 nM) at room temperature, for 30 min, before starting the reaction by the addition of the substrate that was optimal for each enzyme (FhCB1, Z-Phe-Arg-AMC; FhCB2 and FhCB3, Z-Val-Ile-Arg-AMC; FhCL3, Z-Gly-Pro-Arg-AMC). Substrate concentrations were equal to KM (shown in Table 1) and the apparent inhibition constant (Ki^app) values were calculated with GraphPad Prism 5, using the Morrison equation for tight binding inhibition (Equation (3)). For competitive inhibitors, such as those used in this study, Ki^app was fitted to a second equation (Equation (4)) from which Ki can be determined. (3) vi/vo=1−([E])+[I]+Kiapp)−([E]+[I]+Kiapp)^2−4[E][I] /2[E] (4) Kiapp=Ki(1+[S]/KM)

For assay [2], the target named is FhCB3 (Fasciola hepatica, UniProt A7UNB2). As to the kind of experiment: Inhibition of recombinant FhCB3, fluorogenic substrate assay (Z-Val-Ile-Arg-AMC). The format is biochemical. The protocol:
as §1, §2

The target of assay [3] is FhCL3 (Fasciola hepatica, UniProt A0A879R2T5). Description: Inhibition of recombinant FhCL3, fluorogenic substrate assay (Z-Gly-Pro-Arg-AMC). The format is biochemical. To be noted: for Ki: inhibition constant Ki. The protocol: as §1, §2
Assay [4] deals with F. hepatica metacercariae. Description: Excystment of F. hepatica metacercariae in vitro. To be noted: 100 μM inhibitor, 3 h, 37 °C, 50 metacercariae per well; vs DMSO control. The format is cell-based, Fasciola hepatica. As to the method: F. hepatica metacercariae (Italian isolate; Ridgeway Research, Saint Briavels, UK) were prepared for excystment as previously described by Robinson et al.. To verify the effect of the cathepsin peptidase inhibitors on the ability of the metacercariae to excyst, 50 metacercariae per well were placed into a 24-well plate and 1 mL of excystment medium (0.6% sodium bicarbonate, 0.45% sodium chloride, 0.4% sodium tauroglycocholate, 0.025 N HCl and 0.4% L-cysteine) supplemented with 100 μM of the inhibitor was added to the well. As controls, we used PBS and dimethylsulfoxide (DMSO, 1:100; Sigma-Aldrich) alone. The plate was then incubated at 37 °C with 5% CO2, for 3 h to allow metacercarial excystment. Using a light microscope (25× magnification), the number of excysted NEJ was determined.

In assay [5] the test system is F. hepatica metacercariae. On the set-up: method as in PMID 19443417. To be noted: final concentration of 1 mM; cited from earlier work.
The target of assay [6] is FhCB2 (Fasciola hepatica, UniProt A5X493). As to the kind of experiment: Inhibition of recombinant FhCB2, fluorogenic substrate assay (Z-Val-Ile-Arg-AMC). The format is biochemical. As to the method:
as §1, §2

The target in assay [7] is T1, human cathepsin B (HsCB) (Homo sapiens, UniProt P07858).
T1 construct: purchased Sigma-Aldrich; host or cells: human embryonic kidney cells
Description: Inhibitor screen against human cathepsin B control. The format is biochemical.
Text: The Schistosoma mansoni cathepsin B1 (SmCB1) was also produced in our laboratory using P. pastoris as described above. The human cathepsin B (HsCB) and cathepsin L1 (HsCL1) were produced in human embryonic kidney cells (Sigma-Aldrich).
as §2, with “All the assays were carried out in 0.1 M C-P buffer with 1 mM DTT and 0.01% Brij® L23, at the pH corresponding to the optimum for each enzyme in a total 200 µL reaction volume. The peptidases (140 nM) were pre-incubated with the inhibitor (1000-15 nM) at room temperature, for 30 min, before starting the reaction by the addition of the substrate that was optimal for each enzyme (FhCB1, Z-Phe-Arg-AMC; FhCB2 and FhCB3, Z-Val-Ile-Arg-AMC; FhCL3, Z-Gly-Pro-Arg-AMC).” left out
The broad-range cysteine peptidase inhibitor Z-Phe-Ala-FMK was also included (Figure 5).
Figure 5 Profile of inhibition of FhCB1, FhCB2, FhCB3 and FhCL3. Commercially available inhibitors of cathepsin B (Ca074 and Ca07a-OMe), cathepsin L (L, L1, LII, LIII and LIV), cathepsin K (KI, KII and KIII), cathepsin S and the broad-spectrum papain peptidase inhibitor Z-Phe-Ala-FMK (A–L) were used to determine and compare the inhibition constant against recombinants FhCB1, FhCB2, FhCB3, FhCL3, HsCB and HsCL1. […] Error bars indicate standard deviation of three replicates.

Assay [8] has as its system NEJ. On the set-up: method as in PMID 19401154. The following applies: concentration of 6.25 μM; cited from earlier work.
Where [9] appears, read: recombinant FhCB1 140 nM, 30 min pre-incubation, substrate Z-Phe-Arg-AMC at KM, optimum pH, ± SEM.
[10] abbreviates: recombinant FhCL3 140 nM, 30 min pre-incubation, substrate Z-Gly-Pro-Arg-AMC at KM, optimum pH, ± SEM.

SMILES strings stand for the structures. “And” between values parts separate entries of the source, which are not always exact repeats. Equal values may be shown once. “Also recorded” adds a separate entry of the source.

Chain of FhCL3 (A0A879R2T5 entry or part of it): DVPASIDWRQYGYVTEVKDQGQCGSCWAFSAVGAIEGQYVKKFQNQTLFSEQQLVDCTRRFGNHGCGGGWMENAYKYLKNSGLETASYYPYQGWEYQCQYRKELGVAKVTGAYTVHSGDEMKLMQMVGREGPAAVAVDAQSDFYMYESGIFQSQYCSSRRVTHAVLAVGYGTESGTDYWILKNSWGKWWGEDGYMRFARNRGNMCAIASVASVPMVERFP
Chain of FhCB3 (A7UNB2 entry or part of it): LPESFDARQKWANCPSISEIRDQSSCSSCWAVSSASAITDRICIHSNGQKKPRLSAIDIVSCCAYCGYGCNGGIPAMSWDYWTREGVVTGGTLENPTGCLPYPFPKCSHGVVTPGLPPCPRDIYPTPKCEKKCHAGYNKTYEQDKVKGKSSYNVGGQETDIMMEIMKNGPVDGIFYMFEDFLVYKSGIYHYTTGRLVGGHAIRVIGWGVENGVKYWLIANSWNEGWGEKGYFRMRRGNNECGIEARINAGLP
Chain of FhCB1 (Q8I7B2 entry or part of it): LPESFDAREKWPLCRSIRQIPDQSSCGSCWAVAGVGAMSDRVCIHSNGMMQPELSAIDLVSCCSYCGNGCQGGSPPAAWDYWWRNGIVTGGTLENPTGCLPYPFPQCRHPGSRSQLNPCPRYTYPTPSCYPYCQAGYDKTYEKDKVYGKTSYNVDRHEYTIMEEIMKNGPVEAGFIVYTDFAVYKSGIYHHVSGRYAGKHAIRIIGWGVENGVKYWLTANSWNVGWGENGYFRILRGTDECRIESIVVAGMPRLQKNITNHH
Chain of FhCB2 (A5X493 entry or part of it): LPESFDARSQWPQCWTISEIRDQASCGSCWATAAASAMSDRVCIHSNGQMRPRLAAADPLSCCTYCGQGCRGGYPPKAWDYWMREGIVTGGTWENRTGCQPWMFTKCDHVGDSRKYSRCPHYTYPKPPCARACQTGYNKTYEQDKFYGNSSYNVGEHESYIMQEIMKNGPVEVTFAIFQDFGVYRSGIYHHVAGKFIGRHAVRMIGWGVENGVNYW

Broadly, the Ki is the equilibrium dissociation constant of an inhibitor or competing ligand from its target. `C[C@H](NC(=O)[C@H](Cc1ccccc1)NC(=O)OCc1ccccc1)C(=O)CF` [Z-Phe-Ala-FMK]: the Ki in assay [1] (setting [9]) is < 15 nM and 3 nM; in assay [2] it was 246 ± 55.7 nM; in assay [3] (setting [10]) it was 15 ± 5.95 nM. Further, the “reduction of metacercariae excystment” value in assay [4] is recorded as “more than 50%”. Moreover, the “effect on metacercariae excystment” value in assay [5] is listed as “completely prevented”.

Consider `CCCNC(=O)[C@H]1O[C@@H]1C(=O)N[C@H](C(=O)N1CCC[C@H]1C(=O)OC)[C@@H](C)CC` [Ca074ME], for which the “inhibition of enzymatic activity (inhibitor screen, Figure 5), in words” value in assay [1] (FhCB1, inhibitor 1000-15 nM, listed as Ca074-OMe) is listed as “poor inhibitors; also recorded: very poor inhibitors”; in assay [6] (FhCB2, inhibitor 1000-15 nM, listed as Ca074-OMe), “poor inhibitors; also recorded: very poor inhibitors”; in assay [2] (FhCB3, inhibitor 1000-15 nM, listed as Ca074-OMe), “poor inhibitors; also recorded: very poor inhibitors”; in assay [3] (FhCL3, inhibitor 1000-15 nM), “poor inhibitors”; in assay [7], “selective for HsCB compared to HsCL1”. Further, the “inhibition constant Ki” value in assay [1] (setting [9]) is “poor inhibition”; in assay [6] (recombinant FhCB2 140 nM, 30 min pre-incubation, substrate Z-Val-Ile-Arg-AMC at KM, optimum pH, ± SEM), “poor inhibition”; in assay [2] (recombinant FhCB3 140 nM, 30 min pre-incubation, substrate Z-Val-Ile-Arg-AMC at KM, optimum pH, ± SEM), “poor inhibition”; in assay [3] (setting [10]), “poor inhibition”. The Ki in assay [1] (setting [9]) was 5500 ± 1190 nM; in assay [2] it was 785 ± 130 nM; in assay [3] (setting [10]) it was 249 ± 35.5 nM. Besides, the “effect on cultured NEJ” value in assay [8] was “sub-lethal effect”.

The values above are taken from article PMC8698070, “The Zoonotic Helminth Parasite Fasciola hepatica: Virulence-Associated Cathepsin B and Cathepsin L Cysteine Peptidases Secreted by Infective Newly Excysted Juveniles (NEJ)” (Animals : an Open Access Journal from MDPI, 2021).
